We go through 21 compounds from ChEMBL document CHEMBL3286118, “Synthesis and in vitro antitumor activity of novel 2-alkyl-5-methoxycarbonyl-11-methyl-6H-pyrido[4,3-b]carbazol-2-ium and 2-alkylellipticin-2-ium chloride derivatives” (Eur J Med Chem, 2014).

A short description of the assay: Cytotoxicity against human HeLaS3 cells assessed as cell viability after 24 to 72 hrs by MTT assay. Type of assay: functional, cell-based. Conditions: HeLa S3. (Tetrazolium dyes change colour on reduction, which living cells bring about.)

The term IC50 denotes the concentration at which inhibition is half-maximal. Take `Cc1c2c[n+](CCCCCN)ccc2c(C)c2c1c1cc(O)ccc1n2C`: the half-inhibitory concentration (IC50) is 19.3 µM.
With `COC(=O)c1c2cc[n+](CCOCCN)cc2c(C)c2c1[nH]c1ccccc12` the figure was 41.3 µM; with `Cc1c2c[n+](CCOCCN)ccc2c(C)c2c1c1cc(O)ccc1n2C`, 17.9 µM; with `Cc1c2cc[n+](CCOCCN)cc2c(C)c2c1[nH]c1ccccc12`, 27.8 µM.
Regarding `Cc1c2cc[n+](CCOCCN)cc2c(C)c2c1[nH]c1ccc(O)cc12`, the half-inhibitory concentration (IC50) was 17.7 µM.
With `Cc1c2cc[n+](C)cc2c(C)c2c1[nH]c1ccccc12` the figure was 2.9 µM; with `CNC(=O)NCCOCC[n+]1ccc2c(C)c3[nH]c4ccccc4c3c(C)c2c1`, 75.3 µM.
In the case of `CNC(=O)NCCOCC[n+]1ccc2c(C)c3[nH]c4ccc(O)cc4c3c(C)c2c1`, the IC50 worked out at 29.4 µM.
For `CNC(=O)NCCOCC[n+]1ccc2c(C)c3c(c(C)c2c1)c1cc(O)ccc1n3C` the value was 6.2 µM.
With `CNC(=O)NCCCCC[n+]1ccc2c(C)c3c(c(C)c2c1)c1cc(O)ccc1n3C` the figure was 32.5 µM; with `COC(=O)c1c2cc[n+](CCOCCNC(=O)N(C)N=O)cc2c(C)c2c1[nH]c1ccccc12`, 51.9 µM; with `Cc1c2cc[n+](CCOCCNC(=O)N(C)N=O)cc2c(C)c2c1[nH]c1ccc(O)cc12`, 60 µM.
Regarding `Cc1c2c[n+](CCOCCNC(=O)N(C)N=O)ccc2c(C)c2c1c1cc(O)ccc1n2C`, the IC50 amounted to 18.4 µM.
For `COC(=O)c1c2cc[n+](CCN)cc2c(C)c2c1[nH]c1ccccc12` the value was 5.8 µM.
As for `COC(=O)c1c2cc[n+](CCCN)cc2c(C)c2c1[nH]c1ccccc12`, the half-inhibitory concentration (IC50) turned out to be 2.5 µM.
With `CNC(=O)NCC[n+]1ccc2c(C(=O)OC)c3[nH]c4ccccc4c3c(C)c2c1` the figure was 6.6 µM; with `COC(=O)c1c2cc[n+](CCNC(=O)N(C)N=O)cc2c(C)c2c1[nH]c1ccccc12`, 15 µM.
For `CNC(=O)NCCC[n+]1ccc2c(C(=O)OC)c3[nH]c4ccccc4c3c(C)c2c1` the value was 24 µM; for `COC(=O)c1c2cc[n+](CCCNC(=O)N(C)N=O)cc2c(C)c2c1[nH]c1ccccc12`, 1.3 µM; for `Cc1c2ccncc2c(C)c2c1[nH]c1ccccc12` [ELLIPTECINE], 2.1 µM.
As to `CN(N=O)C(N)=O` [N-METHYL-N-NITROSUREA], the IC50 is > 100 µM.
